Assay results as given in the supplement of paper PMC4862054.

How the values were obtained:
Settings in all cases: incubation time: 72 h
MDA-MB-436 = experiment: drug sensitivity score (DSS), CellTiter-Glo (DSS (AUC-based score)); higher = stronger drug effect (viability inhibition or cytotoxicity); extreme values may be limits of the assay
In short: (§1)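 Compound was dispensed into 384-well plates at 5 concentrations in 10-fold steps spanning a 10,000-fold range chosen for each compound, and 20 µl of breast cancer cell suspension was added before 72 h of incubation. CellTox Green fluorescence was read at 485/520 nm, followed by CellTiter-Glo luminescence after 10 min at room temperature. Values on each plate were normalised to 0.1 % DMSO and a positive kill control. The drug sensitivity score came from the area under the fitted dose-response curve.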

BT-549 [1] = experiment: as above
In short: as §1

HDQ-P1 = experiment: as above
In short: as §1

Hs578T = experiment: as above
In short: as §1

CAL-85-1 [2] = experiment: as above
In short: as §1

MDA-MB-453 [3] = experiment: as above
In short: as §1

HCC1143 = experiment: as above
In short: as §1

MDA-MB-468 [4] = experiment: as above
In short: as §1

CAL-120 = experiment: as above
In short: as §1

MFM-223 [5] = experiment: as above
In short: as §1

HCC1937 = experiment: as above
In short: as §1

HCC1599 = experiment: as above
In short: as §1

CAL-148 [6] = experiment: as above
In short: as §1

MCF-10A = experiment: as above
In short: as §1

MDA-MB-231 [7] = experiment: as above
In short: as §1

BT-549 [8] = experiment: normalised viability (% of control), CellTiter-Blue; higher = more viable cells (about 100 = DMSO control)
In short: (§2)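 Vehicle (100) and a positive kill control (0) anchored the normalisation of each plate, and Z'-factor was used for quality control. Breast cancer cell lines in 20 µl suspension were incubated 72 h over compound in 5 µl medium in 384-well plates, followed by CellTiter-Blue at 560/590 nm. The value is normalised viability at a single listed concentration of the series.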

CAL-85-1 [9] = experiment: as above
In short: as §2

MDA-MB-453 [10] = experiment: as above
In short: as §2

SK-BR-3 = experiment: as above
In short: as §2

CAL-51 = experiment: as above
In short: as §2

MDA-MB-468 [11] = experiment: as above
In short: as §2

MFM-223 [12] = experiment: as above
In short: as §2

BT-474 = experiment: as above
In short: as §2

CAL-148 [13] = experiment: as above
In short: as §2

MDA-MB-231 [14] = experiment: as above
In short: as §2

CCN(CC)CCCC(C)Nc1ccnc2cc(Cl)ccc12 (stereo not given) [Chloroquine]
Settings	drug sensitivity score
BT-549 [1]	9.55
CAL-85-1 [2]	11
CAL-120	11.1
CAL-148 [6]	10.1
HCC1143	4.28
HCC1599	9.72
HCC1937	9.1
HDQ-P1	7.81
Hs578T	5.84
MCF-10A	8.64
MDA-MB-231 [7]	9.09
MDA-MB-436	9.03
MDA-MB-453 [3]	15.7
MDA-MB-468 [4]	10.8
MFM-223 [5]	9.76

normalised viability [%]
Settings	BT-474	BT-549 [8]	CAL-51	CAL-85-1 [9]	CAL-148 [13]	MDA-MB-231 [14]	MDA-MB-453 [10]	MDA-MB-468 [11]	MFM-223 [12]	SK-BR-3
0.297 nM	–	–	94	95.5	88.5	–	108	–	–	–
0.99 nM	109	88.3	–	–	–	113	–	107	101	103
2.97 nM	–	–	92.9	90	89.1	–	111	–	–	–
9.9 nM	–	–	91.7	97	89.4	–	105	–	–	–
99 nM	108	95.6	–	–	–	129	–	115	106	93.4
990 nM	111	108	–	–	–	98.7	–	98.4	94.2	101

Cn1cc(C2=C(c3cn(C4CCN(Cc5ccccn5)CC4)c4ccccc34)C(=O)NC2=O)c2ccccc21 [Enzastaurin]
Settings	drug sensitivity score
BT-549 [1]	0
CAL-85-1 [2]	0
CAL-120	0
CAL-148 [6]	0
HCC1143	0
HCC1599	0
HCC1937	0
HDQ-P1	0
Hs578T	0
MCF-10A	0
MDA-MB-231 [7]	0
MDA-MB-436	0
MDA-MB-453 [3]	0
MDA-MB-468 [4]	0
MFM-223 [5]	0

normalised viability [%]
Settings	BT-474	BT-549 [8]	CAL-51	CAL-85-1 [9]	CAL-148 [13]	MDA-MB-231 [14]	MDA-MB-453 [10]	MDA-MB-468 [11]	MFM-223 [12]	SK-BR-3
3 nM	–	–	117	85.1	78.6	–	107	–	–	–
10 nM	104	92.4	–	–	–	88.2	–	103	90	99.8
30 nM	–	–	111	93.4	80.2	–	93.7	–	–	–
100 nM	–	–	107	85.4	78.5	–	87.8	–	–	–
1000 nM	92.7	68.9	–	–	–	89.6	–	107	65.1	63.4
10000 nM	67	48.1	–	–	–	71.1	–	62.8	55.9	37
